These results are taken from patent EP1377579B1 (Aventis Pharmaceuticals Inc., priority 2000, dated 2002).

The target of experiment [1] is cdk4/cyclin D1 (Homo sapiens, UniProt P11802). In words: Cyclin-dependent kinase assay, cdk4/cyclin D1. Conditions: cyclin D1/cdk4; GST-pRb substrate, 10 µM ATP. Format: biochemical.
Experiment [2] deals with cdk1/cyclin B (Homo sapiens, UniProt P06493). The experiment is described as follows: Cyclin-dependent kinase assay, cdk1/cyclin B. Conditions: CDK1 IC50, nM, Histone H1, 10 µM ATP.
Chain of cdk1/cyclin B (P06493 whole entry): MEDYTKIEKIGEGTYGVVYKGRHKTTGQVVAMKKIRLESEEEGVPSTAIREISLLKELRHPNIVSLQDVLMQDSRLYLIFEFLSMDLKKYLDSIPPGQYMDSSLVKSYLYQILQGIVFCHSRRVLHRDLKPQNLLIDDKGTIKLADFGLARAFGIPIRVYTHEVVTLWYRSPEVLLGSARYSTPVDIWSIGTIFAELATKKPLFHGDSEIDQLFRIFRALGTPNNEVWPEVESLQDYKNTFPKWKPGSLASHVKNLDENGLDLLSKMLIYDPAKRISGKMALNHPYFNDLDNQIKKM
Chain of cdk1/cyclin B (P14635 whole entry partner): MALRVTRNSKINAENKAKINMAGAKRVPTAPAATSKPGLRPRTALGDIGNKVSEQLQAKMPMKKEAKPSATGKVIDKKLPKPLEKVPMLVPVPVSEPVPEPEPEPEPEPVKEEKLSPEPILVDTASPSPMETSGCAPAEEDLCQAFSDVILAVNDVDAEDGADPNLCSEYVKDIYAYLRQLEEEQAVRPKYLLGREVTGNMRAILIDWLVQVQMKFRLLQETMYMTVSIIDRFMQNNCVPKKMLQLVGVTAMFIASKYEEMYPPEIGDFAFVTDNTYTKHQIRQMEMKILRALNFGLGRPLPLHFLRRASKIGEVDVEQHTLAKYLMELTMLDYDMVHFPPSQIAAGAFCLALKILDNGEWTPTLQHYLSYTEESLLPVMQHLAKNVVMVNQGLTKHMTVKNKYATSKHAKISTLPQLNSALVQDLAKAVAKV
Experiment [3] has as its target cdk2/cyclin E (Homo sapiens, UniProt P24941). The experiment is described as follows: Cyclin-dependent kinase assay, cdk2/cyclin E. Conditions: CDK2 IC50, nM, GST-pRb substrate, 10 µM ATP.
The test system of experiment [4] is PC-3. The experiment is described as follows: In vitro proliferation assay (MTT), PC-3. Format: cell-based, human. Conditions: Homo sapiens, PC-3, MTT assay; value (SD, n) where given; read-out: PC-3 Prostate (IC50 µM). The essentials:
(§1)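 MTT viability, 3 d compound treatment; seeding 1000–2500 cells/well, overnight attachment; formazan in DMSO, A570; IC50 fitted from raw absorbance.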

In experiment [5] the test system is MDA-MB-435. In words: In vitro proliferation assay (MTT), MDA-MB-435. The format is cell-based, human. Conditions: Homo sapiens, MDA-MB-435, MTT assay; value (SD, n) where given; read-out: MB-435 Breast (IC50 µM). A digest of the protocol: as §1
(Tetrazolium assays rely on reduction of a dye to a coloured formazan, in cell work by metabolically active cells.)

pIC50: −log10 of the molar value. Counter-ions that a name gives are not always drawn.

Chain of cdk4/cyclin D1 (P11802 whole entry): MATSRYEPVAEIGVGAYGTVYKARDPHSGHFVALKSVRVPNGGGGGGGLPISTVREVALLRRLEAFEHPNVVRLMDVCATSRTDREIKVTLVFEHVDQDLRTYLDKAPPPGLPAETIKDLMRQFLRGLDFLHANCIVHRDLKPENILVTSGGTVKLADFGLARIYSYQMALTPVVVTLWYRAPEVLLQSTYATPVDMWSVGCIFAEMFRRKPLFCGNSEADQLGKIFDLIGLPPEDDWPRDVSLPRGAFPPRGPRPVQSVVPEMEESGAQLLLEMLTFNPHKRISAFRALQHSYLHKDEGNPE
Chain of cdk4/cyclin D1 (P24385 whole entry partner): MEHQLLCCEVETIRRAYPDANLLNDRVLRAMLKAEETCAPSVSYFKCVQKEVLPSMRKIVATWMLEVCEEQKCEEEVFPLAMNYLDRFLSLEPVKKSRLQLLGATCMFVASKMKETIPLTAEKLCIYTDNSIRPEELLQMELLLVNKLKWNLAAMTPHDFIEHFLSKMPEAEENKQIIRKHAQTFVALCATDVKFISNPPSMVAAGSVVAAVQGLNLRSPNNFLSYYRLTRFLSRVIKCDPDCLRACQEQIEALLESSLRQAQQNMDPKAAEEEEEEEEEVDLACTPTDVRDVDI

As usually defined, the pIC50 is −log10 of the IC50, conventionally taken in molar units. Read a low pIC50 as a high IC50. In general, IC50 refers to the point on the concentration scale where inhibition reaches its midpoint. `CCNC(=O)N1CCC(Nc2nc(N[C@H]3CC[C@H](N)CC3)nc3c2ncn3C2CCCC2)CC1` [compound 148, trans-4-[2-(4-Amino-cyclohexylamino)-9-cyclopentyl-9H-purin-6-ylamino]-piperidine-1-carboxylic acid ethylamide dihydrochloride] gave a pIC50 in experiment [1] of 6.16. Moreover, the IC50 in experiment [2] came to 197 nM; in experiment [3] it was 61 nM; in experiment [4], 4.79 µM; in experiment [5], 4.7 µM.

As to `COc1ccc(NC(=O)N2CCC(Nc3nc(N[C@H]4CC[C@H](N)CC4)nc4c3ncn4C3CCCC3)CC2)c(OC)c1` [compound 151, trans-4-[2-(4-Amino-cyclohexylamino)-9-cyclopentyl-9H-purin-6-ylamino]-piperidine-1-carboxylic acid (2,4-dimethoxy-phenyl)-amide dihydrochloride], the pIC50 in experiment [1] was 6.41. The IC50 in experiment [2] turned out to be 60 nM; in experiment [3] it was 32 nM; in experiment [4], 0.5 µM; in experiment [5], 0.44 µM.

In turn, `N[C@H]1CC[C@H](Nc2nc(NC3CCN(C(=O)Nc4cccc(F)c4)CC3)c3ncn(C4CCCC4)c3n2)CC1` [compound 152, trans-4-[2-(4-Amino-cyclohexylamino)-9-cyclopentyl-9H-purin-6-ylamino]-piperidine-1-carboxylic acid (3-fluoro-phenyl)-amide dihydrochloride] gave a pIC50 in experiment [1] of 6.12. Besides, the IC50 in experiment [2] stood at 17 nM; in experiment [3], 42 nM; in experiment [4] it was 0.38 µM; in experiment [5], 0.3 µM.

In turn, `COc1ccc(NC(=O)N2CCC(Nc3nc(N[C@H]4CC[C@H](N)CC4)nc4c3ncn4C3CCCC3)CC2)cc1` [compound 153, trans-4-[2-(4-Amino-cyclohexylamino)-9-cyclopentyl-9H-purin-6-ylamino]-piperidine-1-carboxylic acid (4-methoxy-phenyl)-amide dihydrochloride] gave a pIC50 in experiment [1] of 6.35. Besides, the IC50 in experiment [2] is 20 nM; in experiment [3], 30 nM; in experiment [4], 0.45 µM; in experiment [5], 0.38 µM.

In the case of `COc1cccc(NC(=O)N2CCC(Nc3nc(N[C@H]4CC[C@H](N)CC4)nc4c3ncn4C3CCCC3)CC2)c1` [compound 155, trans-4-[2-(4-Amino-cyclohexylamino)-9-cyclopentyl-9H-purin-6-ylamino]-piperidine-1-carboxylic acid (3-methoxy-phenyl)-amide dihydrochloride], the pIC50 in experiment [1] is 6.32. For the same compound, the IC50 was found to be 20 nM in experiment [2], 43 nM in experiment [3], 0.44 µM in experiment [4] and 0.33 µM in experiment [5].

As to `CC(C)NC(=O)N1CCC(Nc2nc(N[C@H]3CC[C@H](N)CC3)nc3c2ncn3C2CCCC2)CC1` [compound 157, trans-4-[2-(4-Amino-cyclohexylamino)-9-cyclopentyl-9H-purin-6-ylamino]-piperidine-1-carboxylic acid isopropylamide dihydrochloride], in experiment [1], the pIC50 was 5.69. For the same compound, the IC50 in experiment [2] was found to be 310 nM; in experiment [3], 32 nM; in experiment [4], 3.34 µM; in experiment [5], 2.54 µM.

Compound `N[C@H]1CC[C@H](Nc2nc(NC3CCN(C(=O)Nc4ccccc4C(F)(F)F)CC3)c3ncn(C4CCCC4)c3n2)CC1` [compound 158, trans-4-[2-(4-Amino-cyclohexylamino)-9-cyclopentyl-9H-purin-6-ylamino]-piperidine-1-carboxylic acid (2-trifluoromethyl-phenyl)-amide dihydrochloride] showed a pIC50 in experiment [1] of 6.08. Further, the IC50 in experiment [2] was 82 nM; in experiment [3], 87 nM; in experiment [4], 0.38 µM; in experiment [5], 0.29 µM.

For the compound `C[C@@H](NC(=O)N1CCC(Nc2nc(N[C@H]3CC[C@H](N)CC3)nc3c2ncn3C2CCCC2)CC1)c1ccccc1` [compound 160, trans-4-[2-(4-Amino-cyclohexylamino)-9-cyclopentyl-9H-purin-6-ylamino]-piperidine-1-carboxylic acid ((R)-1-phenyl-ethyl)-amide dihydrochloride], the pIC50 in experiment [1] is 6.45. Also, the 50% inhibitory concentration (IC50) was 85 nM in experiment [2], 94 nM in experiment [3], 1.69 µM in experiment [4] and 1.36 µM in experiment [5].

`C[C@H](NC(=O)N1CCC(Nc2nc(N[C@H]3CC[C@H](N)CC3)nc3c2ncn3C2CCCC2)CC1)c1ccccc1` [compound 161, trans-4-[2-(4-Amino-cyclohexylamino)-9-cyclopentyl-9H-purin-6-ylamino]-piperidine-1-carboxylic acid ((S)-1-phenyl-ethyl)-amide dihydrochloride] had a pIC50 in experiment [1] of 6.22. Moreover, the IC50 was determined as 56 nM in experiment [2], 78 nM in experiment [3], 0.96 µM in experiment [4] and 1.01 µM in experiment [5].

In the case of `C=CCNC(=O)N1CCC(Nc2nc(N[C@H]3CC[C@H](N)CC3)nc3c2ncn3C2CCCC2)CC1` [compound 164, trans-4-[2-(4-Amino-cyclohexylamino)-9-cyclopentyl-9H-purin-6-ylamino]-piperidine-1-carboxylic acid allylamide dihydrochloride], the pIC50 in experiment [1] was 6.13. Besides, the IC50 in experiment [2] turned out to be 151 nM; in experiment [3], 86 nM; in experiment [4], 4.99 µM; in experiment [5] it was 5.03 µM.

As to `N[C@H]1CC[C@H](Nc2nc(NC3CCN(C(=O)Nc4ccc(Cl)cc4Cl)CC3)c3ncn(C4CCCC4)c3n2)CC1` [compound 167, trans-4-[2-(4-Amino-cyclohexylamino)-9-cyclopentyl-9H-purin-6-ylamino]-piperidine-1-carboxylic acid (2,4-dichloro-phenyl)-amide dihydrochloride], the negative-log IC50 (pIC50) in experiment [1] was 7.20. Besides, the IC50 in experiment [2] was 4 nM; in experiment [3], 54 nM; in experiment [4], 0.38 µM; in experiment [5], 0.28 µM.

`N[C@H]1CC[C@H](Nc2nc(NC3CCN(C(=O)NC(=O)c4ccccc4)CC3)c3ncn(C4CCCC4)c3n2)CC1` [compound 172, trans-N-(1-{4-[2-(4-Amino-cyclohexylamino)-9-cyclopentyl-9H-purin-6-ylamino]-piperidin-1-yl}-methanoyl)-benzamide dihydrochloride] had a pIC50 in experiment [1] of 6.08. For the same compound, the IC50 in experiment [2] is 23 nM; in experiment [3] it was 62 nM; in experiment [4] it was 1.04 µM; in experiment [5] it was 1.16 µM.

`CCOC(=O)NC(=O)N1CCC(Nc2nc(N[C@H]3CC[C@H](N)CC3)nc3c2ncn3C2CCCC2)CC1` [compound 173, trans-(1-{4-[2-(4-Amino-cyclohexylamino)-9-cyclopentyl-9H-purin-6-ylamino]-piperidin-1-yl}-methanoyl)-carbamic acid ethyl ester dihydrochloride] gave a pIC50 in experiment [1] of 6.37. Further, the IC50 came to 18 nM in experiment [2], 30 nM in experiment [3], 2.81 µM in experiment [4] and 2.67 µM in experiment [5].

The compound `N[C@H]1CC[C@H](Nc2nc(NC3CCN(C(=O)Nc4ccccc4OC(F)(F)F)CC3)c3ncn(C4CCCC4)c3n2)CC1` [compound 174, trans-4-[2-(4-Amino-cyclohexylamino)-9-cyclopentyl-9H-purin-6-ylamino]-piperidine-1-carboxylic acid (2-trifluoromethoxy-phenyl)-amide dihydrochloride] showed a pIC50 in experiment [1] of 6.10. Also, the IC50 in experiment [2] stood at 48 nM; in experiment [3] it was 89 nM; in experiment [4], 0.27 µM; in experiment [5] it was 0.31 µM.

For the compound `N[C@H]1CC[C@H](Nc2nc(NC3CCN(C(=O)Nc4cc(C(F)(F)F)cc(C(F)(F)F)c4)CC3)c3ncn(C4CCCC4)c3n2)CC1` [compound 176, trans-4-[2-(4-Amino-cyclohexylamino)-9-cyclopentyl-9H-purin-6-ylamino]-piperidine-1-carboxylic acid (3,5-bis-trifluoromethyl-phenyl)-amide dihydrochloride], in experiment [1], the pIC50 is 6.05. Further, the half-maximal inhibitory concentration (IC50) is 7 nM in experiment [2], 378 nM in experiment [3], 0.54 µM in experiment [4] and 0.51 µM in experiment [5].

Take `CCCCCNC(=O)N1CCC(Nc2nc(N[C@H]3CC[C@H](N)CC3)nc3c2ncn3C2CCCC2)CC1` [compound 184, trans-4-[2-(4-Amino-cyclohexylamino)-9-cyclopentyl-9H-purin-6-ylamino]-piperidine-1-carboxylic acid pentylamide dihydrochloride]: the pIC50 in experiment [1] is 6.42. The IC50 in experiment [2] is 77 nM; in experiment [3] it was 85 nM; in experiment [4] it was 0.71 µM; in experiment [5], 0.71 µM.

On to `CCCCCCNC(=O)N1CCC(Nc2nc(N[C@H]3CC[C@H](N)CC3)nc3c2ncn3C2CCCC2)CC1` [compound 185, trans-4-[2-(4-Amino-cyclohexylamino)-9-cyclopentyl-9H-purin-6-ylamino]-piperidine-1-carboxylic acid hexylamide dihydrochloride], for which the pIC50 in experiment [1] was 6.55. Besides, the IC50 in experiment [2] stood at 72 nM; in experiment [3], 79 nM; in experiment [4], 0.41 µM; in experiment [5], 0.29 µM.
